{"source": "patent US20230160007A1", "about": "“KIT FOR EVALUATING SENSITIVITY OF PATIENT TO MET INHIBITOR” (Beijing Neurosurgical Institute, priority 2020, published 2023)", "type_in_all_cases": "cell-based, human", "key": {"[1]": {"test_system": "glioblastoma PDC sample C", "test": "CCK-8 viable count of glioblastoma PDC sample C after drug treatment", "settings": "for Living cell proportion (a value relative to CCK8): 72 h", "description": "(§1) Enzymolysis was separately carried out on the four collected glioblastoma samples to obtain glioblastoma PDC samples A, B, C and D.\n(§2) The glioblastoma PDC samples A, B, C and D were taken, re-suspended by using a special culture medium, and then respectively inoculated into a 96-well cell culture plate, so that each culture well contained 3000 cells. After inoculation was completed, the 96-well cell culture plate was placed in an incubator containing 5% CO2 at 37° C., and incubation was performed for 24 h."}, "[2]": {"test_system": "glioblastoma PDC sample A", "test": "CCK-8 viable count of glioblastoma PDC sample A after drug treatment", "settings": "for Living cell proportion (a value relative to CCK8): PDC sample A, 72 h", "description": "as §1\nas §2, with “h. […] After the drug was added, the incubation was continued to be performed for 72 h, then the viable count in each culture well was measured by using CCK-8, and the results are shown in Table 1, Table 2, FIG. 11 and FIG. 12.” for “h.”"}, "[3]": {"test_system": "glioblastoma PDC sample D", "test": "CCK-8 viable count of glioblastoma PDC sample D after drug treatment", "settings": "for Living cell proportion (a value relative to CCK8): 72 h", "description": "as §1\nas §2, with “h. […] After the drug was added, the incubation was continued to be performed for 72 h, then the viable count in each culture well was measured by using CCK-8, and the results are shown in Table 1, Table 2, FIG. 11 and FIG. 12.” for “h.”"}, "[4]": {"test_system": "glioblastoma PDC sample B", "test": "CCK-8 viable count of glioblastoma PDC sample B after drug treatment", "settings": "for Living cell proportion (a value relative to CCK8): PDC sample B, 72 h", "description": "as §1, §2"}}, "data": [{"compound": "Cn1nnc2c(C(N)=O)ncn2c1=O", "note": "[TMZ, temozolomide]", "values": [{"measurement": "Living cell proportion (a value relative to CCK8)", "setting": "[1]; TMZ 50 μM", "result": 0.6188}, {"measurement": "Living cell proportion (a value relative to CCK8)", "setting": "[1]; TMZ 100 μM", "result": 0.5841}, {"measurement": "Living cell proportion (a value relative to CCK8)", "setting": "[1]; TMZ 150 μM", "result": 0.4536}, {"measurement": "Living cell proportion (a value relative to CCK8)", "setting": "[1]; TMZ 200 μM", "result": 0.4768}, {"measurement": "Living cell proportion (a value relative to CCK8)", "setting": "[1]; TMZ 300 μM", "result": 0.4315}, {"measurement": "Living cell proportion (a value relative to CCK8)", "setting": "[1]; TMZ 400 μM", "result": 0.3164}, {"measurement": "Living cell proportion (a value relative to CCK8)", "setting": "[1]; TMZ 600 μM", "result": 0.2817}, {"measurement": "Living cell proportion (a value relative to CCK8)", "setting": "[1]; TMZ 800 μM", "result": 0.2834}, {"measurement": "Living cell proportion (a value relative to CCK8)", "setting": "[1]; TMZ 1000 μM", "result": 0.3585}, {"measurement": "Living cell proportion (a value relative to CCK8)", "setting": "[2]; TMZ 50 μM", "result": 0.8481}, {"measurement": "Living cell proportion (a value relative to CCK8)", "setting": "[2]; TMZ 100 μM", "result": 0.8696}, {"measurement": "Living cell proportion (a value relative to CCK8)", "setting": "[2]; TMZ 150 μM", "result": 0.7968}, {"measurement": "Living cell proportion (a value relative to CCK8)", "setting": "[2]; TMZ 200 μM", "result": 0.7843}, {"measurement": "Living cell proportion (a value relative to CCK8)", "setting": "[2]; TMZ 300 μM", "result": 0.7824}, {"measurement": "Living cell proportion (a value relative to CCK8)", "setting": "[2]; TMZ 400 μM", "result": 0.6482}, {"measurement": "Living cell proportion (a value relative to CCK8)", "setting": "[2]; TMZ 600 μM", "result": 0.5261}, {"measurement": "Living cell proportion (a value relative to CCK8)", "setting": "[2]; TMZ 800 μM", "result": 0.4052}, {"measurement": "Living cell proportion (a value relative to CCK8)", "setting": "[2]; TMZ 1000 μM", "result": 0.2577}, {"measurement": "Living cell proportion (a value relative to CCK8)", "setting": "[3]; TMZ 50 μM", "result": 0.7828}, {"measurement": "Living cell proportion (a value relative to CCK8)", "setting": "[3]; TMZ 100 μM", "result": 0.647}, {"measurement": "Living cell proportion (a value relative to CCK8)", "setting": "[3]; TMZ 150 μM", "result": 0.5799}, {"measurement": "Living cell proportion (a value relative to CCK8)", "setting": "[3]; TMZ 200 μM", "result": 0.5468}, {"measurement": "Living cell proportion (a value relative to CCK8)", "setting": "[3]; TMZ 300 μM", "result": 0.4681}, {"measurement": "Living cell proportion (a value relative to CCK8)", "setting": "[3]; TMZ 400 μM", "result": 0.3984}, {"measurement": "Living cell proportion (a value relative to CCK8)", "setting": "[3]; TMZ 600 μM", "result": 0.3435}, {"measurement": "Living cell proportion (a value relative to CCK8)", "setting": "[3]; TMZ 800 μM", "result": 0.2684}, {"measurement": "Living cell proportion (a value relative to CCK8)", "setting": "[3]; TMZ 1000 μM", "result": 0.2529}, {"measurement": "Living cell proportion (a value relative to CCK8)", "setting": "[4]; TMZ 50 μM", "result": 0.8549}, {"measurement": "Living cell proportion (a value relative to CCK8)", "setting": "[4]; TMZ 100 μM", "result": 0.8905}, {"measurement": "Living cell proportion (a value relative to CCK8)", "setting": "[4]; TMZ 150 μM", "result": 0.9369}, {"measurement": "Living cell proportion (a value relative to CCK8)", "setting": "[4]; TMZ 200 μM", "result": 0.8763}, {"measurement": "Living cell proportion (a value relative to CCK8)", "setting": "[4]; TMZ 300 μM", "result": 0.724}, {"measurement": "Living cell proportion (a value relative to CCK8)", "setting": "[4]; TMZ 400 μM", "result": 0.7183}, {"measurement": "Living cell proportion (a value relative to CCK8)", "setting": "[4]; TMZ 600 μM", "result": 0.5489}, {"measurement": "Living cell proportion (a value relative to CCK8)", "setting": "[4]; TMZ 800 μM", "result": 0.345}, {"measurement": "Living cell proportion (a value relative to CCK8)", "setting": "[4]; TMZ 1000 μM", "result": 0.3175}]}, {"compound": "C[C@@H](Oc1cc(-c2cnn(C3CCNCC3)c2)cnc1N)c1c(Cl)ccc(F)c1Cl", "note": "[crizotinib]", "values": [{"measurement": "Living cell proportion (a value relative to CCK8)", "setting": "[1]; crizotinib 0.5 μM", "result": 0.9496}, {"measurement": "Living cell proportion (a value relative to CCK8)", "setting": "[1]; crizotinib 1 μM", "result": 0.8619}, {"measurement": "Living cell proportion (a value relative to CCK8)", "setting": "[1]; crizotinib 2 μM", "result": 0.8082}, {"measurement": "Living cell proportion (a value relative to CCK8)", "setting": "[1]; crizotinib 6 μM", "result": 0.6643}, {"measurement": "Living cell proportion (a value relative to CCK8)", "setting": "[1]; crizotinib 9 μM", "result": 0.4383}, {"measurement": "Living cell proportion (a value relative to CCK8)", "setting": "[1]; crizotinib 12 μM", "result": 0.4003}, {"measurement": "Living cell proportion (a value relative to CCK8)", "setting": "[1]; crizotinib 15 μM", "result": 0.3824}, {"measurement": "sensitivity of the glioblastoma PDC sample to the drug", "setting": "[1]; in words", "result": "sensitive"}, {"measurement": "sensitivity of the glioblastoma PDC sample to the drug", "setting": "[2]; PDC sample A (MET exon 10 and exon 19 deleted), in words", "result": "sensitive"}, {"measurement": "Living cell proportion (a value relative to CCK8)", "setting": "[2]; crizotinib 0.5 μM", "result": 0.824}, {"measurement": "Living cell proportion (a value relative to CCK8)", "setting": "[2]; crizotinib 1 μM", "result": 0.5684}, {"measurement": "Living cell proportion (a value relative to CCK8)", "setting": "[2]; crizotinib 1.5 μM", "result": 0.4624}, {"measurement": "Living cell proportion (a value relative to CCK8)", "setting": "[2]; crizotinib 2 μM", "result": 0.3834}, {"measurement": "Living cell proportion (a value relative to CCK8)", "setting": "[2]; crizotinib 3 μM", "result": 0.3316}, {"measurement": "Living cell proportion (a value relative to CCK8)", "setting": "[2]; crizotinib 6 μM", "result": 0.2663}, {"measurement": "Living cell proportion (a value relative to CCK8)", "setting": "[2]; crizotinib 9 μM", "result": 0.2482}, {"measurement": "Living cell proportion (a value relative to CCK8)", "setting": "[2]; crizotinib 12 μM", "result": 0.2387}, {"measurement": "Living cell proportion (a value relative to CCK8)", "setting": "[2]; crizotinib 15 μM", "result": 0.2518}, {"measurement": "Living cell proportion (a value relative to CCK8)", "setting": "[3]; crizotinib 0.5 μM", "result": 0.9247}, {"measurement": "Living cell proportion (a value relative to CCK8)", "setting": "[3]; crizotinib 1 μM", "result": 0.8162}, {"measurement": "Living cell proportion (a value relative to CCK8)", "setting": "[3]; crizotinib 1.5 μM", "result": 0.7327}, {"measurement": "Living cell proportion (a value relative to CCK8)", "setting": "[3]; crizotinib 2 μM", "result": 0.6986}, {"measurement": "Living cell proportion (a value relative to CCK8)", "setting": "[3]; crizotinib 3 μM", "result": 0.7544}, {"measurement": "Living cell proportion (a value relative to CCK8)", "setting": "[3]; crizotinib 6 μM", "result": 0.5995}, {"measurement": "Living cell proportion (a value relative to CCK8)", "setting": "[3]; crizotinib 9 μM", "result": 0.4381}, {"measurement": "Living cell proportion (a value relative to CCK8)", "setting": "[3]; crizotinib 12 μM", "result": 0.3812}, {"measurement": "Living cell proportion (a value relative to CCK8)", "setting": "[3]; crizotinib 15 μM", "result": 0.4752}, {"measurement": "sensitivity of the glioblastoma PDC sample to the drug", "setting": "[3]; in words", "result": "sensitive"}, {"measurement": "sensitivity of the glioblastoma PDC sample to the drug", "setting": "[4]; PDC sample B (MET exon 10 deleted), in words", "result": "sensitive"}, {"measurement": "Living cell proportion (a value relative to CCK8)", "setting": "[4]; crizotinib 0.5 μM", "result": 0.9128}, {"measurement": "Living cell proportion (a value relative to CCK8)", "setting": "[4]; crizotinib 1 μM", "result": 0.7978}, {"measurement": "Living cell proportion (a value relative to CCK8)", "setting": "[4]; crizotinib 1.5 μM", "result": 0.7125}, {"measurement": "Living cell proportion (a value relative to CCK8)", "setting": "[4]; crizotinib 6 μM", "result": 0.3689}, {"measurement": "Living cell proportion (a value relative to CCK8)", "setting": "[4]; crizotinib 9 μM", "result": 0.3059}, {"measurement": "Living cell proportion (a value relative to CCK8)", "setting": "[4]; crizotinib 12 μM", "result": 0.2806}, {"measurement": "Living cell proportion (a value relative to CCK8)", "setting": "[4]; crizotinib 15 μM", "result": 0.2769}]}]}
